Experimental data reported in PubChem BioAssay AID1259333 (Broad Institute, 2017).
Activity calls are given as the source filed them. No rule for the calls is given here; tested in parental BL2 cells.

Experiment: cell cytotoxicity, dose response, cytotoxicity control, CellTiter-Glo (AID 1259333);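 also: 0% = vehicle neutral controls and -100% = reference inhibitor positive controls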
Conditions: cytotoxicity, CellTiter-Glo ATP luminescence; at 10 µM (top of the series)

| Compound | activity change, negative = cytotoxicity |
| --- | --- |
| C[C@@H]1CN([C@H](C)CO)C(=O)c2c(c3ccccc3n2C)-c2ccccc2CO[C@H]1CN(C)C(=O)Nc1ccccc1C(F)(F)F | -16.3% (inactive) |
| CC[C@H]1CN2CCc3cc(OC)c(OC)cc3C2C[C@@H]1CC1NCCc2cc(OC)c(OC)cc21 (some centres not stated) | -31.6% (inactive) |
| Cc1ccc(-c2cc(C(=O)N(C)CC(=O)Nc3ccccc3Br)c3ccccc3n2)o1 | 130% (inactive) |
| Cc1cccc(-c2ccc(C3[C@@H]4CN(C(=O)Nc5ccc(C(F)(F)F)cc5)C[C@H]3N4)cc2)c1 (some centres not stated) | 26.3% (inactive) |
| O=C(CN1C(=O)c2ccccc2S1(=O)=O)Nc1ncc(Cl)cc1Cl | 30.7% (inactive) |
| CCCNC(=O)N1[C@H](C#N)[C@H](c2ccc(C#Cc3cccc(F)c3)cc2)[C@H]1CO | 16.9% (inactive) |
| COc1ccc2c3c(n(C)c2c1)[C@H](CO)N(C(=O)Nc1ccc(F)cc1)CC31CCN(C(=O)Nc2ccc(F)cc2F)CC1 | 29.2% (inactive) |
| CC1=CC(=O)c2c(O)cccc2C1=O | 112% (inactive) |
| C=C1C(=O)OC2C=C(CO)C3OC3C3OC3(C)CC(OC(=O)/C(=C/C)COC(C)=O)C12 (configuration not stated) | 17.5% (inactive) |
| N#C[C@@H]1[C@@H](c2ccc(C#CC3CCCCC3)cc2)[C@H](CO)N1C(=O)Nc1ccc(F)cc1 | 28.9% (inactive) |
| C=C1C(=O)OC2CC1C(O)CC(C)=CCCC(C)=CC(O)CC2C (configuration not stated) | 35.5% (inactive) |
| C/C=C/c1ccc(C2[C@H]3CNC[C@@H]2N3Cc2cccc(OC)c2)cc1 (some centres not stated) | 18% (inactive) |
| O=C1C(Br)=C(c2ccccc2)C(c2ccccc2)=C1c1ccccc1 | -18.2% (inactive) |
| CCOc1ccc(OCc2cccc(C(=O)N3CCOCC3)c2)cc1 | 42% (inactive) |
| NC(c1ccccc1)c1csc(NC(=O)Nc2cccc(C(F)(F)F)c2)n1 (configuration not stated) | -26.9% (inactive) |
| COc1ccc(S(=O)(=O)N(C)C[C@H]2Oc3ccc(NC(=O)Nc4ccc(C(F)(F)F)cc4)cc3C(=O)N([C@@H](C)CO)C[C@@H]2C)cc1 | 33.2% (inactive) |

| Compound | activity change, negative = cytotoxicity |
| --- | --- |
| C[C@H]1CCCC(=O)CCC/C=C/c2cc(O)cc(O)c2C(=O)O1 | 29.3% (inactive) |
| CCCNC(=O)c1cc2c(c(-c3cccc(-c4cc5ccccc5o4)c3)n1)[C@H](CCO)N(C(=O)NC(C)C)C2 | 109% (inactive) |
| CC1CC(C)C(=O)C(C(CC2CC(=O)NC(=O)C2)OC(=O)CC(=O)c2ccccc2)C1 (configuration not stated) | 11.5% (inactive) |
| Oc1c(Cl)cc(Cl)cc1Sc1cc(Cl)cc(Cl)c1O | 11% (inactive) |
| COc1ccc(C=Cc2ccc3ccccc3n2)c(OC)c1 | 26.9% (inactive) |
| Cc1ccc(P(=O)(CSC(=N)N)c2ccc(C)cc2)cc1 | -36.8% (inactive) |
| c1ccc2c(c1)OCC(C1=NCCN1)O2 (configuration not stated) | 56.8% (inactive) |
| CC=Cc1cc2c(c(=O)o1)C(=O)C(O)C(C)O2 (configuration not stated) | 37.6% (inactive) |
| CCCCn1c(NC(=O)c2ccc(Br)o2)c(S(=O)(=O)c2ccccc2)c2nc3ccccc3nc21 | 62.4% (inactive) |
| O=c1cc(-c2ccccc2)oc2cc(O)cc(O)c12 | 52.1% (inactive) |
| O=C(c1nnsc1S(=O)(=O)c1ccc(Cl)cc1)N1CCOCC1 | 40.8% (inactive) |
| O=C(NC(=S)/C(=C1\CCCCCN1)[N+](=O)[O-])c1ccccc1 | 16.4% (inactive) |
| Cc1nc(-c2ccc(OCC(C)C)c(C#N)c2)sc1C(=O)O | 23.3% (inactive) |
| COc1ccccc1NC(c1cccnc1)c1ccc2cccnc2c1O (configuration not stated) | 123% (inactive) |
| CCOc1ncccc1C(=O)OC(C)C(=O)Nc1ccc(Cl)cn1 (configuration not stated) | 24.8% (inactive) |
| Cc1csc(NC(=O)c2ccc(N3CCCC3=O)cc2)n1 | 23.5% (inactive) |
